# In PMC5597618, “Identification and characterization of the novel reversible and selective cathepsin X inhibitors” (Scientific Reports, 2017):
# Where two headings read alike, the source gives them in different places.
# Key:
# cathepsin X = cathepsin X (Homo sapiens, UniProt Q9UBR2); assay: Determination of relative inhibition of cathepsin X; assay type: biochemical; set-up: made in house; host or cells: Pichia pastoris
# Protocol: (§1) Recombinant or native human cathepsins were used: recombinant cathepsin X and cathepsin S were expressed in Pichia pastoris, recombinant cathepsins B and L in E. coli, [43], native cathepsin H was isolated from human liver. Assay buffers for determining activities of cathepsins X and L consisted of 100 mM sodium acetate buffer, pH 5.5, for cathepsins H, S and B (endopeptidase activity) of 100 mM phosphate buffer pH 6.8, 6.5 and 6.0, respectively and for cathepsin B (exopeptidase activity) of 60 mM acetate buffer pH 5.0. Each assay buffer contained 0.01% Triton X-100 to prevent false positive inhibition due to aggregation of compounds[45], 5 mM cysteine, 1.5 mM EDTA and 0.1% PEG 8000. Enzymes were activated at 37 °C for 5 min before the assays.
# Abz-FEK(Dnp)-OH was used as cathepsin X specific substrate in activity assays. 90 μL of activated cathepsin X (20 nM) was added to a black 96-well plate with 5 μL of substrate (3.25 μM final concentration) and 5 μL of the compound (50 μM final concentration). The reaction was monitored continuously at 420 nm ± 10 nm with excitation at 320 nm ± 20 nm and at 37 °C. Relative inhibition (%) was calculated with the equation (1 − v i/v 0) × 100, where v i is reaction velocity in the presence of the compound and v 0 is reaction velocity without the compound.
# PC-12 cells = assay: Neurite outgrowth assay; assay type: cell-based, rat; details: 10 µM; 48 h; vs DMSO control
# Protocol: (§2) Human prostate cancer cell line PC-3 cells (obtained from ATCC, Manassas, USA; ATCC Number: CRL-1435) were cultured in F-12 (Gibco) and Advanced DMEM (Gibco) (1:1) with 10% FBS, 1% penicillin/streptomycin and 1% L-glutamine. Rat pheochromocytoma PC-12 cells (obtained from ATCC, Manassas, USA; ATCC Number: CRL-1721) were cultured in Advanced DMEM (Gibco) with 5% FBS, 10% heat-inactivated horse serum, 1% penicillin/streptomycin and 1% L-glutamine.
# PC-12 cells were seeded in 96-well plates (4 × 10^4/well) coated with poly-L-lysine. Next day, the cells were treated with compounds (10 µM) in serum-free medium, and neurite outgrowth was measured after 48 h using Neurite Outgrowth Staining Kit (Molecular Probes), in accordance with the manufacturer’s instructions. Fluorescence intensity was measured at 525 nm with excitation at 483 nm for cell viability indicator and at 567 nm with excitation at 554 nm for cell membrane indicator. Results, expressing increased neurite outgrowth, were normalized to cells treated with DMSO.
# cathepsin B = target: T1, cathepsin B (Homo sapiens, UniProt P07858); assay: Labeling of cathepsin B with activity-based probe DCG-04 in PC-3 cell lysate; assay type: biochemical; details: 10 µM inhibitor
# T1 construct: endogenous in cells; host or cells: PC-3
# PC-3 cells = assay: Real time cell migration assay (xCELLigence, CIM plates); assay type: cell-based, human
# Protocol: as §2
# Cell migration assay was performed on a Real-Time Cell Analyzer Dual Plate (RTCA DP) Instrument, xCELLigence System (ACEA Biosciences). CIM plates were coated with fibronectin (10 μg/ml, BD Biosciences) on the down and upper side of the microporous PET membrane for 30 min at room temperature and 2 hours at 37 °C, respectively. Excess fibronectin was removed and wells washed with phosphate buffer saline (PBS). Compounds (10 μM) were added to the complete media (lower chambers) or serum-free media (upper chambers). 0.1% DMSO was used as a control. 2 × 10^4 cells were plated per well. In additional experimental setting, inhibitors were added only to the upper chambers 3 hours after experiment started in order to measure their impact only on the cell migration and not the adhesion. Impedance data, reported as cell index, were measured continuously every 15 min for 72 hours and then analyzed with the RTCA Software (ACEA Biosciences, Inc.). Results are normalized to cells treated with DMSO.
# Cathepsin S = target: T2, Cathepsin S (Homo sapiens, UniProt P25774); assay: Ki against cathepsin S (Z-VVR-AMC); assay type: biochemical; details: SigmaPlot at 3 different substrate concentrations; pH 6.5
# T2 construct: made in house; host or cells: Pichia pastoris
# Protocol: as §1
# (§3) Ki was determined by measuring the initial rate of hydrolysis at three different substrate concentrations (Supplementary Table S2) in the presence of seven different compound concentrations (0, 20, 40, 60, 80, 100 and 200 μM). 90 μL of the activated cathepsin was added to a black 96-well plate with 5 μL of the substrate and 5 μL of the compound. Formation of the fluorescent degradation product was monitored continuously at 460 nm ± 10 nm with excitation at 380 nm ± 20 nm (for AMC substrates) and, as noted above for Abz substrates, at 37 °C. All measurements were performed twice and in duplicate. The resulting data were analyzed by non-linear regression using the software SigmaPlot®, Enzyme Kinetics Module™ 1.3 and were fitted to the equation v = v max [S]/([S] (1 + [I]/αK i ) + K m (1 + [I]/K i )) (first group of compounds). For Ki determination against cathepsin X for the compounds from the second group, progress curves in the absence and presence of each putative inhibitor were fitted to the reaction mechanism presented in Fig. 3b. In this case the resulting data as well as reactivation curves were fitted to the equation system presented in Fig. 3c using ENZO application. For calculation of kinetic parameters from reaction progress curves the fluorescence coefficient for conversion of arbitrary fluorescence units to concentration was first determined. The fluorescence coefficient was calculated as the slope from the plot of initial substrate concentration vs. height of the plateau of the progress curve after complete hydrolysis of increasing concentrations of substrate, using linear regression.
# (§4) Supplementary Table S2. Substrates used for the various cathepsins and their concentrations […]
# (§5) Enzyme Substrate Concentration (µM) Reference/Company cathepsin X Abz-FEK(Dnp)-OH 3.25, 6.5, 13 Puzer et al.3 cathepsin B - endopept. Z-RR-AMC 60, 180, 360 Bachem cathepsin B - exopept. Abz-GIVRAK(Dnp)-OH 1, 3, 6 Bachem cathepsin S Z-VVR-AMC 0.5, 1, 1.5 Biomol cathepsin L Z-FR-AMC 0.5, 1, 4 Bachem cathepsin H Z-R-AMC 20, 80, 160 Biomol […]
# Cathepsin H = target: T3, Cathepsin H (Homo sapiens, UniProt P09668); assay: Ki against cathepsin H (Z-R-AMC); assay type: biochemical; details: SigmaPlot at 3 different substrate concentrations; pH 6.8
# T3 construct: native cathepsin H was isolated from human liver; from tissue; host or cells: human liver
# Protocol: as §1, §3, §4, §5
# Cathepsin L = target: T4, Cathepsin L (Homo sapiens, UniProt P07711); assay: Ki against cathepsin L (Z-FR-AMC); assay type: biochemical; details: SigmaPlot at 3 different substrate concentrations; pH 5.5
# T4 construct: made in house; host or cells: E. coli
# Protocol: as §1, §3, §4, §5
# [1] = target: T5, Cathepsin B (endopeptidase a.) (Homo sapiens, UniProt P07858); assay: Ki against cathepsin B endopeptidase activity (Z-RR-AMC); assay type: biochemical; details: SigmaPlot at 3 different substrate concentrations; pH 6.0
# T5 construct: made in house; host or cells: E. coli
# Protocol: as §1, §3, §4, §5
# cathepsin X, sequence (Q9UBR2 62-303): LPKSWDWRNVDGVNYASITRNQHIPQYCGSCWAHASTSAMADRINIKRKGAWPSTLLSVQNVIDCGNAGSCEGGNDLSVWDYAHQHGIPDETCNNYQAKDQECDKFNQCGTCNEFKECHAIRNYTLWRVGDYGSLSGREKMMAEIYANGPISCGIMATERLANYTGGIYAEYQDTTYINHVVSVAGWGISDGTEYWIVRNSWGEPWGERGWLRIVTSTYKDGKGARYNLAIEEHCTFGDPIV
# T3 sequence (P09668 116-335 limits assumed, other chains not shown): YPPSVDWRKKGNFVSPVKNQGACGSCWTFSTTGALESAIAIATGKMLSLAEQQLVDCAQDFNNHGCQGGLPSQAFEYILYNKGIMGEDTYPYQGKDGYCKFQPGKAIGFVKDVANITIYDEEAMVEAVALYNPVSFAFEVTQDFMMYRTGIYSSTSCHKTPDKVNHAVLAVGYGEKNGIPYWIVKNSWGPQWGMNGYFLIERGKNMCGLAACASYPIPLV
# T4 sequence (P07711 114-333): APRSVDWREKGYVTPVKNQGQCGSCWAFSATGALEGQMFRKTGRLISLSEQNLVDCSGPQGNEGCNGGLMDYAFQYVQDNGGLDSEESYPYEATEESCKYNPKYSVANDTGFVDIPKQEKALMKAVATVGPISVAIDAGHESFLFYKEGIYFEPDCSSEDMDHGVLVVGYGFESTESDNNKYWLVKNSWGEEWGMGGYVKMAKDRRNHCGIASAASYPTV
# T2 sequence (P25774 115-331): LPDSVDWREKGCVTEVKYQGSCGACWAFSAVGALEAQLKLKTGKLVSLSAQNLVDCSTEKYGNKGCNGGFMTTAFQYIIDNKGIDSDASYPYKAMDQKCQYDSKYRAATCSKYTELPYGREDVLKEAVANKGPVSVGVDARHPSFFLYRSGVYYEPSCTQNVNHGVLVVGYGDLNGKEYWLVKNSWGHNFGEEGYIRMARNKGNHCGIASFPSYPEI
smiles,measurement,setting,value
"CC(C)n1cnnc1SCC(=O)c1ccc2c(c1)OCCO2 [Compound 22, 1-(2,3-Dihydrobenzo[b][1,4]dioxin-6-yl)-2-((4-isopropyl-4H-1,2,4-triazol-3-yl)thio)ethan-1-one]",inhibition at 50 µM,"cathepsin X; screening at 50 μM compound, read-out: relative inhibition of cathepsin X",> 70%
same,inhibition at 50 µM,"cathepsin X; second group, 50 μM compound, 1 h preincubation, read-out: % inhibition (1 h preincubation)",75%
same,increase of neurite outgrowth,PC-12 cells,85%
same,inhibition of cathepsin B labeling by DCG-04,cathepsin B,weak inhibition
same,inhibition at 10 µM,"PC-3 cells; Homo sapiens, PC-3, 10 μM, compound in upper and bottom compartments, vs DMSO",15 to 30%
same,"inhibition of PC-3 cell migration, alternative setting excluding adhesion","PC-3 cells; compound only in upper compartment, added 3 hours after seeding",inhibits migration
same,Ki Cathepsin S,Cathepsin S,n.i.
same,Ki,Cathepsin H,> 1000 µM
same,Ki Cathepsin L,Cathepsin L,n.i.
same,Ki,[1],310 ± 68.3 µM
